This is an account of results in PMC5566973 (Frontiers in Pharmacology, 2017).

The target of series [1] is T1, human BCRP (Homo sapiens, UniProt Q9UNQ0).
T1 construct: purchased GenoMembrane (Kanagawa, Japan); host or cells: Sf9
T1 sequence (Q9UNQ0 1-655): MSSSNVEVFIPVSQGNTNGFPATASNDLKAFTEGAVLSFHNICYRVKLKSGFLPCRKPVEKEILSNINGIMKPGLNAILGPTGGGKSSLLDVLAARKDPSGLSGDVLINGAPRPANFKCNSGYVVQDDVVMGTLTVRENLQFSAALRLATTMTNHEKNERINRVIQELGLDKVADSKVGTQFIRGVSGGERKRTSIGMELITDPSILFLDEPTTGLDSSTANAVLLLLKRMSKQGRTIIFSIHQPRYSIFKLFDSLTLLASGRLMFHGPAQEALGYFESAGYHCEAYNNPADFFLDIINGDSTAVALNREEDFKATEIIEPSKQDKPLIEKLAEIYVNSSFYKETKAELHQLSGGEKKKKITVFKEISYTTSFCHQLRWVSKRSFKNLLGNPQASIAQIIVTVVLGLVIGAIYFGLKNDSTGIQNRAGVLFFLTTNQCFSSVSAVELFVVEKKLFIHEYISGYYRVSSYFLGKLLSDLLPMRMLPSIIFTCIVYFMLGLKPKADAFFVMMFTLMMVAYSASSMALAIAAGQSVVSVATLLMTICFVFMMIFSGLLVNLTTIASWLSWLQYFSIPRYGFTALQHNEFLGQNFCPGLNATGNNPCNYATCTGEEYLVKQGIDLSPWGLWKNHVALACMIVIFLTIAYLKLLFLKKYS
As to the kind of experiment: Vesicular transport assay, Sf9 membrane vesicles expressing human BCRP. Particulars: 1 μM, MgATP vs MgAMP. It is filed as in vitro ADME. As to the method: The vesicular transport assay was implemented as described in the GenoMembrane™ vesicular transport kit protocol (GenoMembrane, Kanagawa, Japan) with minor changes. Briefly, vesicle stocks were thawed and diluted with assay buffer (50 mM MOPS-Tris, 70 mM KCl, and 7.5 mM MgCl2). […] MgAMP instead of MgATP was used as a control. Apart from these, 4 mM glutathione was also included in BCRP and MRP2 assays. Transport was terminated with ice cold assay buffer, and then samples were quickly transferred to a filter plate. Wells were immediately washed 5 times with 200 μL assay buffer and dried. The vesicles on the plate were dissolved in 50 μL of 80% methanol and centrifuged at 2,000 rpm for 2 min after collection, and repeating the above procedures. Mixed the two filtrates together and added the pre-cooled methanol. After centrifugation at 12,000 rpm for 5 min at 4°C, a 5 μL aliquot of supernatant was injected into the UPLC-ESI-MS/MS system for analysis. Furthermore, the uptake of NMQ (MDR1), LY (BCRP), and E217βG (MRP2) was used to evaluate the activity of specific vesicles.

Series [2] has as its system BCRP. As to the kind of experiment: Bidirectional transport in MDCK cell monolayers with selective transporter inhibitors or substrates. Particulars: dog; for efflux ratio at 120 min, 2 μM: read-out: ER. It is filed as in vitro ADME, canine. As to the method:
(§1) Caco-2, MDCK and MDCK-MRP2 cells were donated by Prof. Yan Xie and Yueming Ma from Shanghai University of Traditional Chinese Medicine. The cells were grown in culture dishes (Corning® Costar, Cambridge, MA, USA) using DMEM supplemented with 10% FBS, 1% NEAA and 1% penicillin-streptomycin solution. The cells were cultured in 5% CO2 and […] with 90% relative humidity at 37°C. The medium was replaced every other day during incubation. The cells were passaged every 3–4 days between 70 and 80% confluence at a 1:5 split ratio using 0.25% trypsin-EDTA. For the transport experiments, the cells from passages between 30 and 45 were seeded at 1 × 10^5 cells/cm^2 onto permeable polycarbonate inserts (0.45 μm pore size, seeding surface of 0.6 cm^2, Millipore, MA, USA) in 24-well plastic plates. The media in the culture plates were changed every other day for the first week after seeding and were replaced daily afterward. […] The cells were used for the transport experiments 21–28 (Caco-2) or 5–7 (MDCK and MDCK-MRP2) days after seeding, and only monolayers with a TEER-value above 420 Ω cm^2 were used during the studies.
(§2) The apical (AP) and basolateral (BL) sides are typical of polarized Caco-2, MDCK and MDCK-MRP2 epithelial cells. Before the experiments, the polarized cell monolayers were washed twice with warm HBSS solution and subsequently preincubated (37°C, 30 min). Afterward, HBSS solution on both sides of the cell monolayers was removed using a mini desktop vacuum pump. […] The final DMSO concentration in the HBSS or drug mixture was below 0.5%. The monolayers were incubated at 37°C, and 100 μL samples were taken at 30, 60, 90, and 120 min from the acceptor compartment and immediately replaced with the same volume of prewarmed fresh blank HBSS. TEER measurements for assessing the membrane integrity took place before and after the experiments.
(§3) The apparent permeability coefficients (Papp) and ER were calculated as Equations (2) and (3): […]
(§4) where dQ/dt is the steady-state flux, A is the membrane surface area, and C0 is the initial drug concentration in the donor compartment. PappBA is the Papp-value measured in BL to AP direction and PappAB is the Papp-value measured in AP to BL direction. It indicated the involvement of an active transport process when the ER-value is above 1.5 (Hubatsch et al., [2007]).

Series [3] concerns OATs. The description is as above. It is filed as in vitro ADME, canine. Particulars: dog, with cimetidine 0.05 mM (50 μM), + Cimetidine 0.05 mM (OATs). Here is the method:
as §1, §2, §3, §4

The test system of series [4] is MDR1. The series is described as above. It is filed as in vitro ADME, canine. The following applies: dog; for efflux ratio at 120 min, 2 μM: read-out: ER. Here is the method:
as §1, §2, §3, §4

Series [5] concerns SGLT1. The description is as above. It is filed as in vitro ADME, canine. The following applies: dog, with phloridzin 0.5 mM, + Phloridzin 0.5 mM (SGLT1). As to the method:
as §1, §2, §3, §4

For series [6], the system named is MRP2. Described as above. It is filed as in vitro ADME, canine. Particulars: dog; for efflux ratio at 120 min, 2 μM: read-out: ER. Here is the method: as §1, §2, §3, §4
For series [7], the system named is ATP (adenosine triphosphate). The series is described as above. It is filed as in vitro ADME, canine. Particulars: dog, with NaN3 10 mM, + NaN3 10 mM (ATP). As to the method: as §1, §2, §3, §4
Series [8] has as its system Na+/K+-ATPase. The description is as above. It is filed as in vitro ADME, canine. The following applies: dog, with sodium vanadate 0.05 mM (50 μM), + Sodium vanadate 0.05 mM (Na^+). Here is the method:
as §1, §2, §3, §4

The subject of series [9] is Caco-2 cell monolayers. Particulars: Caco-2 monolayers, 250–500 μM; ref Khan et al., 2004; cited from earlier work.
Setting [10] is: with Ko143 0.01 mM (10 μM), + Ko143 0.01 mM (BCRP).
Setting [11] is: with apigenin 0.025 mM (25 μM), + Apigenin 0.025 mM (BCRP).
[12] abbreviates: with quinidine 0.1 mM (100 μM), + Quinidine 0.1 mM (MDR1).
Setting [13] is: with verapamil 0.1 mM (100 μM), + Verapamil 0.1 mM (MDR1).
[14] abbreviates: with MK571 0.05 mM (50 μM), + MK571 0.05 mM (MRP2).
The mark [15] stands for this setting: with probenecid 0.2 mM (200 μM), + Probenecid 0.2 mM (MRP2).

“And” between values parts separate entries of the source, which are not always exact repeats. Equal entries are not always repeated. Where two headings read alike, the source gives them in different places.

Usually Papp B→A stands for how fast a substance crosses the layer from the basolateral side. A word on the Papp A→B: it is how fast a substance crosses the layer from the apical side. Turning to `COc1ccc2c3c([nH]c2c1)C(C)=NCC3` [Harmaline], in series [1], the “uptake ratio (UR)” value is < 2.00 and 1.42. For the same molecule, the efflux ratio at 120 min, 2 μM in series [2] (setting [10]) was 1.16; in series [2] (setting [11]), 1.16; in series [3] (read-out: ER), 1; in series [4] (setting [12]), 1.12; in series [4] (setting [13]), 1.05; in [5] (read-out: ER), 1.29. Besides, the efflux ratio at 120 min, 2 μM in series [6] (setting [14]) stood at 1.15; in series [6] (setting [15]), 1.04; in series [7] (read-out: ER) it was 1.4; in series [8] (read-out: ER), 1.26. Besides, the basolateral-to-apical permeability (Papp B→A) at 120 min, 2 μM in series [2] (setting [11]) came out at 23.7 ± 1.11 ×10⁻⁶ cm/s; in [3] it was 19.2 ± 1.33 ×10⁻⁶ cm/s; in [4] (setting [12]), 22.5 ± 1.12 ×10⁻⁶ cm/s; in series [4] (setting [13]), 21.9 ± 2.64 ×10⁻⁶ cm/s; in series [8], 20.4 ± 0.22 ×10⁻⁶ cm/s. Moreover, the apparent permeability from apical to basolateral (Papp A→B) at 120 min, 2 μM is 19.2 ± 1.29 ×10⁻⁶ cm/s in series [3], 20.1 ± 0.76 ×10⁻⁶ cm/s in series [4] (setting [12]) and 16.2 ± 1.45 ×10⁻⁶ cm/s in series [8]. Besides, the “efflux ratios (ER)” value in [9] is reported as < 1.0.
In the case of `COc1ccc2c(c1)[nH]c1c(C)nccc12` [Harmine], the basolateral-to-apical permeability (Papp B→A) at 120 min, 2 μM was 7.05 ± 0.16 ×10⁻⁶ cm/s in [2] (setting [10]); 6.83 ± 1.01 ×10⁻⁶ cm/s in [2] (setting [11]); 7.39 ± 0.32 ×10⁻⁶ cm/s in series [4] (setting [12]); 7.67 ± 0.21 ×10⁻⁶ cm/s in series [4] (setting [13]); 6.27 ± 0.78 ×10⁻⁶ cm/s in series [5]; 6.67 ± 0.37 ×10⁻⁶ cm/s in [6] (setting [14]). Moreover, the Papp B→A at 120 min, 2 μM in series [7] is 5.94 ± 0.63 ×10⁻⁶ cm/s; in series [8], 5.22 ± 0.97 ×10⁻⁶ cm/s. In addition, the Papp A→B at 120 min, 2 μM stood at 4.74 ± 0.13 ×10⁻⁶ cm/s in [3]; 4.43 ± 0.32 ×10⁻⁶ cm/s in series [4] (setting [12]); 5.14 ± 0.1 ×10⁻⁶ cm/s in series [6] (setting [14]); 5.21 ± 0.26 ×10⁻⁶ cm/s in series [6] (setting [15]); 4.02 ± 0.18 ×10⁻⁶ cm/s in series [7]; 3.87 ± 0.27 ×10⁻⁶ cm/s in [8].
